# Test results as given in US20110305777A1, “DIMERIC IAP ANTAGONISTS” (Tetralogic Pharmaceuticals Corporation, priority 2006, published 2011).
# Molecular target: XIAP BIR-3 and cIAP-1 BIR-3 (lower Kd of the two reported)
# Test: Fluorescence polarization binding to IAP-BIR3 (competition with AbuRPF-K(5-Fam)-NH2)
# Conditions: Table 1; lower of the Kd for XIAP BIR-3 and cIAP-1 BIR-3
# Experimental: The binding affinities of the compounds listed in Table 1 to an IAP were determined substantially as described by Nikolovska-Coleska, Z. et. al. (Analytical Biochemistry (2004), vol. 332:261-273) using a variety of fluorogenic substrates and is reported as a Kd value. Briefly, various concentrations of IAP antagonists were mixed with 5 nM fluorescently labeled peptide (AbuRPF-K(5-Fam)-NH2) and 40 nM of an IAP-BIR3 for 15 min at RT in […] of 0.1M Potassium Phosphate buffer, pH 7.5 containing […] bovine g-globulin. Following incubation, the polarization values (mP) were measured on a Victor2V using a 485 nm excitation filter and a 520 nm emission filter. IC50 values were determined from the plot using nonlinear least-squares analysis using GraphPad Prism. […] The reported Kd values are the lower of the Kd for XIAP BIR-3 and cIAP-1 BIR-3.
# The following compound of the invention was also made and tested. The reported Kd value is the lower of the Kd for XIAP BIR-3 and cIAP-1 BIR-3.
row,Kd [nM],SMILES
1,< 100,CNC(C)C(=O)NC(C(=O)N1CCC(O)C1Cc1c(-c2[nH]c3cc(F)ccc3c2CC2C(O)CCN2C(=O)C(NC(=O)C(C)NC)C(C)OC)[nH]c2cc(F)ccc12)C(C)OC (centres unmarked) [A]
2,< 100,CNC(CO)C(=O)NC(C(=O)N1CCC(O)C1Cc1c(-c2[nH]c3cc(F)ccc3c2CC2C(O)CCN2C(=O)C(NC(=O)C(CO)NC)C(C)OC)[nH]c2cc(F)ccc12)C(C)OC (centres unmarked) [B]
3,< 100,CNC(C)C(=O)NC(C(=O)N1CCC(O)C1Cc1c(-c2[nH]c3cc(F)ccc3c2CC2C(O)CCN2C(=O)C(NC(=O)C(C)NC)C(C)(C)C)[nH]c2cc(F)ccc12)C(C)(C)C (centres unmarked) [C]
4,< 100,CCC(NC)C(=O)NC(C(=O)N1CCC(O)C1Cc1c(-c2[nH]c3cc(F)ccc3c2CC2C(O)CCN2C(=O)C(NC(=O)C(CC)NC)C(C)(C)C)[nH]c2cc(F)ccc12)C(C)(C)C (centres unmarked) [D]
5,< 100,CCNC(C)C(=O)NC(C(=O)N1CCC(O)C1Cc1c(-c2[nH]c3cc(F)ccc3c2CC2C(O)CCN2C(=O)C(NC(=O)C(C)NCC)C(C)OC)[nH]c2cc(F)ccc12)C(C)OC (centres unmarked) [E]
6,< 100,CCC(NC)C(=O)NC(C(=O)N1CCC(O)C1Cc1c(-c2[nH]c3cc(F)ccc3c2CC2C(O)CCN2C(=O)C(NC(=O)C(CC)NC)C(C)OC)[nH]c2cc(F)ccc12)C(C)OC (centres unmarked) [F]
7,< 100,CNC(C)C(=O)NC(C(=O)N1CCC(OC)C1Cc1c(-c2[nH]c3cc(F)ccc3c2CC2C(OC)CCN2C(=O)C(NC(=O)C(C)NC)C(C)OC)[nH]c2cc(F)ccc12)C(C)OC (centres unmarked) [G]
8,< 100,CCC(NC)C(=O)NC(C(=O)N1CCC(OC)C1Cc1c(-c2[nH]c3cc(F)ccc3c2CC2C(OC)CCN2C(=O)C(NC(=O)C(CC)NC)C(C)OC)[nH]c2cc(F)ccc12)C(C)OC (centres unmarked) [H]
9,< 100,CNC(C)C(=O)NC(C(=O)N1CCC(OC)C1Cc1c(-c2[nH]c3cc(F)ccc3c2CC2C(OC)CCN2C(=O)C(NC(=O)C(C)NC)C(C)(C)C)[nH]c2cc(F)ccc12)C(C)(C)C (centres unmarked) [I]
10,100 to 1000,CCC(NC)C(=O)NC(C(=O)N1CCC(OC)C1Cc1c(-c2[nH]c3cc(F)ccc3c2CC2C(OC)CCN2C(=O)C(NC(=O)C(CC)NC)C(C)(C)C)[nH]c2cc(F)ccc12)C(C)(C)C (centres unmarked) [J]
11,< 100,CCNC(C)C(=O)NC(C(=O)N1CCC(OC)C1Cc1c(-c2[nH]c3cc(F)ccc3c2CC2C(OC)CCN2C(=O)C(NC(=O)C(C)NCC)C(C)OC)[nH]c2cc(F)ccc12)C(C)OC (centres unmarked) [K]
12,< 100,CCNC(C)C(=O)NC(C(=O)N1CCC(OC)C1Cc1c(-c2[nH]c3cc(F)ccc3c2CC2C(OC)CCN2C(=O)C(NC(=O)C(C)NCC)C(C)(C)C)[nH]c2cc(F)ccc12)C(C)(C)C (centres unmarked) [L]
13,< 100,CNC(C)C(=O)NC(C(=O)N1CCC(C)C1Cc1c(-c2[nH]c3cc(F)ccc3c2CC2C(C)CCN2C(=O)C(NC(=O)C(C)NC)C(C)OC)[nH]c2cc(F)ccc12)C(C)OC (centres unmarked) [M]

# Same assay, conditions: Table 4; lower of the Kd for XIAP BIR-3 and cIAP-1 BIR-3
row,Kd [nM],SMILES
1,100 to 1000,CNC(C)(C)C(=O)NC(C(=O)N1CC(O)CC1Cc1c(-c2[nH]c3cc(F)ccc3c2CC2CC(O)CN2C(=O)C(NC(=O)C(C)(C)NC)C(C)OC)[nH]c2cc(F)ccc12)C(C)OC (centres unmarked) [N]
